From PMC3770053 (Biochemistry, 2013)

Columns and labels:
Test in all cases: stopped-flow fluorescence titration, T
Type in all cases: binding
[1] = target: Pol I(KF) (Klenow fragment of E. coli DNA polymerase I), N-His6/D424A/L744C/C907S, termed WT (Escherichia coli, UniProt P00582, C907S/D424A/L744C/Y766A)
[2] = target: Pol I(KF) (Klenow fragment of E. coli DNA polymerase I), N-His6/D424A/L744C/C907S, termed WT (Escherichia coli, UniProt P00582, C907S/D424A/E710Q/L744C)
[3] = target: Pol I(KF) (Klenow fragment of E. coli DNA polymerase I), N-His6/D424A/L744C/C907S, termed WT (Escherichia coli, UniProt P00582, C907S/D424A/L744C/Y766F)
[4] = target: Pol I(KF) (Klenow fragment of E. coli DNA polymerase I), N-His6/D424A/L744C/C907S, termed WT (Escherichia coli, UniProt P00582, C907S/D424A/E710A/L744C)
[5] = target: Pol I(KF) (Klenow fragment of E. coli DNA polymerase I), N-His6/D424A/L744C/C907S, termed WT (Escherichia coli, UniProt P00582, C907S/D424A/L744C)

Row | SMILES | Kd [1] [µM] | Kd [2] [µM] | Kd [3] [µM] | Kd [4] [µM] | Kd [5] [µM]
1 | Nc1nc2c(ncn2[C@H]2C[C@H](O)[C@@H](COP(=O)(O)OP(=O)(O)OP(=O)(O)O)O2)c(=O)[nH]1 [dGTP] | 2.9 ± 2 | 10 ± 1 | 5.9 ± 2.4 | 46 ± 13 | –
2 | Nc1nc2c(ncn2[C@@H]2O[C@H](COP(=O)(O)OP(=O)(O)OP(=O)(O)O)[C@@H](O)[C@H]2O)c(=O)[nH]1 [rGTP] | 13 | – | 68 | – | 41
